Where two headings read alike, the source gives them in different places. Each block holds one compound with its values, some of them ahead of it.
How the values were obtained:
hCA I = hCA I (Homo sapiens, UniProt P00915); experiment: In vitro CA inhibition assay, hCA I; format: biochemical; conditions: unit from table title
hCA II = hCA II (Homo sapiens, UniProt P00918); experiment: In vitro CA inhibition assay, hCA II; format: biochemical
hCA IX = hCA IX (Homo sapiens, UniProt Q16790); experiment: In vitro CA inhibition assay, hCA IX; format: biochemical; conditions: cells with nM printed beside the value
human CA isoforms = conditions: background statement; cited from earlier work
4T1 mammary tumor cells = conditions: 2×10^5 4T1 cells i.v.; daily i.p. injection for 6 days from 24 hours post inoculation; imaged 24 hours after final dose
4T1 primary tumors = experiment: Growth of orthotopically implanted 4T1 primary tumors; format: in vivo, female BALB/c mice; conditions: 1×10^6 cells/mouse orthotopic; tumors established 14 days; daily i.p. for 14 days
[1] = unit from table title, read-out: hCA II inhibition data in KI

Sequence of hCA I (P00915 whole entry): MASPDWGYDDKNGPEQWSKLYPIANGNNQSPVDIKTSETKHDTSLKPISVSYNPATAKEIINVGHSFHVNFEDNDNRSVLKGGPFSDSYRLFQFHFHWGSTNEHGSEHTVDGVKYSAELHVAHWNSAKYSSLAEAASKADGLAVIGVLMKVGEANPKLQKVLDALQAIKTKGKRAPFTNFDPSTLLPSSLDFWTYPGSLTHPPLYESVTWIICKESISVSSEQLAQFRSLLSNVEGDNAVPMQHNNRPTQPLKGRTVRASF

Structure (SMILES): Cc1cc(=O)oc2cc(OC3OC(CO)C(O)C(O)C3O)ccc12 (single isomer, unassigned) [MST-202, 4-methylumbellifer-7-yl- -D-glucopyranoside]
Ki (hCA I): 1000 nM
Ki (hCA II; [1]): > 100 µM

Structure (SMILES): Cc1cc(=O)oc2cc(OC3OC(CO)C(O)C(O)C3O)ccc12 (single isomer, unassigned) [MST-203, 4-methylumbellifer-7-yl-1-D-galactopyranoside]
Ki (hCA I): 590 nM
Ki (hCA II; [1]): 77 µM
Ki (hCA IX): 93 nM

Structure (SMILES): COc1cc2oc(=O)ccc2cc1[C@@H](O)CC(C)C [6-(1S-hydroxy-3-methylbutyl)-7-methoxy-2H-chromen-2-one]
inhibition of all investigated human CA isoforms (human CA isoforms): nonselective, potent inhibitors

Structure (SMILES): Cc1cc(=O)oc2cc(OC3OCC(O)C(O)C3O)ccc12 [MST-201, 4-methylumbellifer-7-yl- -D-xylopyranoside]
melting point: 223 °C

Structure (SMILES): Cc1cc(=O)oc2cc(O[C@H]3O[C@H](CO)[C@@H](O)[C@H](O)[C@@H]3O)ccc12 [MST-204, 4-methylumbellifer-7-yl-α-D-mannopyranoside]
formation of metastases by 4T1 mammary tumor cells (tumor-derived bioluminescence) (4T1 mammary tumor cells): reduced the formation of metastases

Structure (SMILES): Cc1cc(=O)oc2cc(OC3OC(C)C(O)C(O)C3O)ccc12 [MST-205, 4-methylumbellifer-7-yl- -L-rhamnopyranoside]
formation of metastases by 4T1 mammary tumor cells (tumor-derived bioluminescence) (4T1 mammary tumor cells): inhibits the formation of metastases
growth of 4T1 primary tumors (caliper-based measurement) (4T1 primary tumors): Attenuates the Growth of 4T1 Primary Tumors
Ki (hCA I): > 100000 nM
Ki (hCA II; [1]): > 100 µM
Ki (hCA IX): 201 nM

Structure (SMILES): C#CCOc1ccc2ccc(=S)oc2c1 [MST-217, 7-(prop-2-ynyloxy)-2H-chromene-2-thione]
melting point: 97 to 101 °C

Structure (SMILES): CC(C)(C)[Si](C)(C)Oc1ccc2oc(=O)ccc2c1 [MST-230, 6-(tert-Butyldimethylsilyloxy)-2H-chromen-2-one]
Ki (hCA II; [1]): > 200 µM

Structure (SMILES): CC(C)(C)[Si](C)(C)Oc1ccc2ccc(=O)oc2c1 [MST-231, 7-(tert-Butyldimethylsilyloxy)-2H-chromen-2-one]
Ki (hCA II): > 200 µM

Structure (SMILES): N#Cc1cc2ccc(O)cc2oc1=O [MST-247]
Ki (hCA I): 104000 nM

Structure (SMILES): O=c1ccc2ccccc2o1 [unsubstituted coumarin, coumarin]
inhibition of all investigated human CA isoforms (human CA isoforms): nonselective, potent inhibitors

Further lines, results first:

melting point: 164 to 166 °C
Structure (SMILES): O=c1ccc2cc(OCc3cn(-c4ccccc4Cl)nn3)ccc2o1 [MST-225, 6-((1-(2-chlorophenyl)-1H-1,2,3-triazol-4-yl)methoxy)-2H-chromen-2-one]

Ki (hCA II; [1]): > 200 µM
Structure (SMILES): Oc1ccc2oc(=S)ccc2c1 [MST-233, 6-Hydroxy-2H-chromene-2-thione]

Ki (hCA II; [1]): > 200 µM
Structure (SMILES): C=CCOc1ccc2oc(=S)ccc2c1 [MST-240, 6-(Allyloxy)-2H-chromene-2-thione]

melting point: 238 to 240 °C
Structure (SMILES): Cc1cc(=O)oc2cc(OCCn3c([N+](=O)[O-])cnc3C)ccc12 [MST-248, 7-O-[2-(2-methyl-5-nitro-imidazol-1-yl)ethyl]-4-methylcoumarine]

melting point: 190 to 191 °C
Structure (SMILES): Cc1cc(=O)oc2ccc(OCCn3c([N+](=O)[O-])cnc3C)cc12 [MST-249, 6-O-[2-(2-methyl-5-nitro-imidazol-1-yl)ethyl]-4-methylcoumarine]

Reference: patent US20140148400A1, “CARBONIC ANHYDRASE INHIBITORS WITH […] ACTIVITY” (METASIGNAL THERAPEUTICS INC., priority 2010, published 2014)
